Data reported in US7235584B2, “Non-psychotropic cannabinoids” (Pharmos Corporation, priority 2000, dated 2007).

Key:
NMDA receptor = experiment: [3H]MK-801 displacement radioligand binding, rat forebrain membranes
Description: The identification of possible recognition sites for PRS-211 analogs was carried out by measuring the ability of these PRS-211 analogs to inhibit the binding of MK-801 to rat forebrain membranes.
Brains were removed from Sprague-Dawley rats no more than 5 min after decapitation. Membrane preparations were isolated according to a procedure described previously (Eshhar et al., Brain Res. 476:57, 1989). Prior to radioligand binding measurements, endogenous glutamate present in membranes was removed from the preparation by subjecting the membranes to 3–4 successive washings in 10 mM Tris HCl pH 7.2, performed at 4° C.
The specific binding of the new analogs to NMDA receptors was determined by their ability to displace [^3H]MK-801 from NMDA receptor in rat forebrain preparations. Specifically, rat-forebrain membranes (0.1 mg) were incubated for 2 hours at room temperature with 10 nM of tritiated MK-801 and with the PRS-211 compounds at 3 doses each. Non-specific binding was determined by the use of 0.1 mM MK-801. Following the incubation, bound radioligand was separated from unbound by filtration through GF/B filters. The filters were counted in a β-counter and log of analog concentrations versus % of [^3H]MK-801 specific binding was plotted. The IC50 was calculated from this plot.
Binding of [^3H]MK-801 to membranes was carried out in the presence of 30 μM glycine and 10 μM L-glutamate. Membranes (250 μg protein) were resuspended in 50 mM tris-acetate pH 7.4 buffer and incubated with 10 nM [^3H]MK-801, either alone or in the presence of PRS-211 compounds at 0.1–100 μM concentrations for three hours at room temperature (RT). Reaction buffers used in the different radioligand binding studies contained 10% of an ethanol/Emulphor 620/deionized water mixture. The ratio (by volume) of the respective components in the mixture was 20/3/57. This mixture is required for solubilizing PRS-211 compounds at concentrations above 30 μM. Reaction volume was 1 ml. Non-specific [^3H]MK-801 binding was determined in the presence of 100 μM unlabeled MK-801.
Concentration dependence of certain PRS-211 analogs on inhibition of [^3H]MK-801 binding is illustrated in FIG. 1.

tail flick model in mice = experiment: Tail flick model: analgesic effect and tolerance to morphine; format: in vivo, ICR male mice; settings: for analgesic activity administered separately: escalating doses of up to 10 mg/kg i.p.
From the text: A mice model of acute pain, the tail flick model, was used to test the ability of compounds to prolong the analgesic activity of opioids, by preventing the development of tolerance, and their ability to reverse established tolerance.
The following animal model of acute pain was used to assess the potential analgesic effects of test compounds either alone or in combination with morphine. […] In this model the nociceptive stimulus is thermal and the latency time till the animal flicks its tail is monitored (Le Bars D., Gozariu M. & Cadden S. W., Pharmacol. Rev. 53: 597–652, 2001).
Hyperalgesia to radiant heat was assessed as follows. ICR male mice (20–30 g average body weight, Harlan, Israel) were injected with test compounds i.p. at the volume dose of 5 ml/kg. Each treatment group contained at least 6 animals. The test compounds were dissolved in Cremophor®:ethanol (70:30 weight/weight) and diluted 1:20 in saline prior to injection. Morphine HCl was directly dissolved in saline. Its vehicle was also included as control. Pain threshold was determined 30 minutes post-administration by measuring the foot-withdrawal latency defined as the time from the onset of radiant heat to foot withdrawal. The cut-off time was preset to 10 seconds in order to prevent tissue damage. […] Test compounds (5 mg/kg) and vehicle (5 ml/kg) were administered 15 minutes before morphine and pain threshold was determined 30 minutes after the first injection of morphine on day 1, 5, 8 and 10. […] Pain threshold was determined on day 1 and 10.
In each type of study, the animals were tested on given days 30 minutes after morphine injection in the tail flick apparatus (Socrel, model DS 20). Animals were gently held while their tails were located above the photoelectric cell. The tails were then illuminated (21V) at 2 cm from the distal tip and the latency time, measured in seconds, was recorded in duplicates. The results are expressed either as absolute latency time or as percent of animals that enjoyed significant analgesia as measured by the fact that their latency time is at least twice the latency time for vehicle treated animals. At the end of the study, the animals were euthanized by i.p. injection of 100 mg/kg sodium pentobarbitone.
The differences between the latency times among various treatment groups was analyzed by analysis of variance (ANOVA) followed by post-hoc Duncan test. The differences between the % of animals showing analgesia among various treatment groups was analyzed by analysis of variance (ANOVA) followed by post-hoc Fisher exact test. A value of p<0.05 is considered to be statistically significant.

[1] = tested on: T1, nitric oxide synthase (NOS); experiment: Inhibition of nitric oxide synthase, fluorimetric nitrite assay in LPS-stimulated macrophage supernatants; format: cell-based; settings: macrophage cell cultures
T1 construct: endogenous in cells
T1 sequence (P35228 whole entry): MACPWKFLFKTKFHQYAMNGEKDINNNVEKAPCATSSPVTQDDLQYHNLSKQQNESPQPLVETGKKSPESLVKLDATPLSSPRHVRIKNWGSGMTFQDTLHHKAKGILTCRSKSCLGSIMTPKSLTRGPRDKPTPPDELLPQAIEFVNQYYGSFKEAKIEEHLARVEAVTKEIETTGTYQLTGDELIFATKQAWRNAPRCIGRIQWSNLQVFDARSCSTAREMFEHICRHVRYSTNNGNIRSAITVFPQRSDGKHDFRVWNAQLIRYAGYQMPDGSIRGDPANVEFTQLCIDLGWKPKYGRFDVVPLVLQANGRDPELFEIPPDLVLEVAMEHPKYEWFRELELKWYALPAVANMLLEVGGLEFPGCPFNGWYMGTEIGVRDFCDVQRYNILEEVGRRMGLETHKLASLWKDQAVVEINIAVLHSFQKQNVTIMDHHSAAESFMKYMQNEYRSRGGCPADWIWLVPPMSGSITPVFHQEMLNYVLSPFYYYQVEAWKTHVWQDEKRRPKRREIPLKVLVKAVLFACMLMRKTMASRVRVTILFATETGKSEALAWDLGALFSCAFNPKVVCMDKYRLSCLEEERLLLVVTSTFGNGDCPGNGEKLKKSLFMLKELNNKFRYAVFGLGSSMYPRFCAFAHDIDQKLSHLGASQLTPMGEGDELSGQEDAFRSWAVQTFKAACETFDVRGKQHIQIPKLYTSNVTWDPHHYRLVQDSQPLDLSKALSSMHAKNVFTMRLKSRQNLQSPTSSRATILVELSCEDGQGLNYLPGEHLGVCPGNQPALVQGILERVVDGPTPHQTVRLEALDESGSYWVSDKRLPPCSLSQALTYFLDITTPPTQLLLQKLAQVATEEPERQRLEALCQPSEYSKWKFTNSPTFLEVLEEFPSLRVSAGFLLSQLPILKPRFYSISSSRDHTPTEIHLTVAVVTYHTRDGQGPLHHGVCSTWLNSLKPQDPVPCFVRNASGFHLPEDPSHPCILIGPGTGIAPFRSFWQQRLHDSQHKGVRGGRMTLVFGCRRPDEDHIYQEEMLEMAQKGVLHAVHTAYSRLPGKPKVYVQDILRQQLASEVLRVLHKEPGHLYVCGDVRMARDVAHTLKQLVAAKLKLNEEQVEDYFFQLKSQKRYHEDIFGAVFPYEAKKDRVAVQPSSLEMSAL
Description: As one aspect of the anti-oxidative potential of the novel analogs they were tested for their ability to inhibit the enzyme nitric oxide synthase (NOS). This assay can also serve as another indication of the anti-inflammatory cascade, as well as the anti-oxidative mechanisms.
The final products of NOS are Nitrite (NO2) and Nitrate (NO3). The in vitro fluorimetric assay provides an accurate method for the measurement of the Nitrite, which is the majority of NO products. The principle of the fluorimetric assay is based on the addition of DAN (2,3-diaminonaphthalene) to the aliquots of the supernatants collected from macrophage cell cultures incubated with the new analogs and stimulated with LPS. Following, NaOH was added to convert Nitrite to a fluorescent compound 1(H)-naphthtriazole. The fluorescence was measured immediately in a fluorimeter using excitation wavelength of 365 nm and an emission wavelength of 450 nm.

| SMILES | NMDA receptor binding / affinity (in words) (NMDA receptor) | analgesic activity administered separately (tail flick model in mice) | inhibition at 10 µM [1] [%] | Ki (NMDA receptor; rat forebrain membranes, read-out: inhibition constant (KI) of [3H]MK-801 binding) [µM] | IC50 (NMDA receptor; rat forebrain membranes, read-out: mean IC50 of [3H]MK-801 binding (FIG. 2)) [µM] | development of tolerance to morphine (tail flick model in mice; 5 mg/kg in combination with 10 mg/kg i.p. morphine over 10 days) | reversal of established tolerance to morphine (tail flick model in mice; in combination with morphine from day 11, tested day 12, 15, 17, PRS-211,220 5 mg/kg, dextromethorphan 20 mg/kg) |
| --- | --- | --- | --- | --- | --- | --- | --- |
| CCCCCCC(C)(C)c1cc(O)c2c(c1)OC(C)(C)C1CC=C(CSc3ncc[nH]3)CC21 (single isomer, unassigned; (+)) [211,092-000] | low affinity | no significant analgesic activity | 86 |  |  |  |  |
| CCCCCCC(C)(C)c1cc(O)c2c(c1)OC(C)(C)C1CC=C(Cn3ccnc3)CC21.Cl (single isomer, unassigned; (+)) [211,095-000, (+)-(3S ,4S )-6,6-Dimethyl-(1,1-dimethylheptyl)-1-hydroxy-9-(imidazolomethyl)-6a,7,10,10a-tetrahydro-6H-dibenzo[b,d]pyran] | relatively high affinity | no significant analgesic activity | 34 |  |  |  |  |
| CCCCCCC(C)(C)c1cc(O)c2c(c1)OC(C)(C)[C@H]1CC=C(CO)CC21 (stereo partly drawn) [211,007-000, 1,1 dimethyl heptyl-(3S,4S)-7-hydroxy-Δ^6-tetrahydrocannabinol] | competes with the binding of MK-801 to membranes |  | 20 | 11 ± 1.3 | 10 |  |  |
| CCCCCCC(C)(C)c1cc(O)c2c(c1)OC(C)(C)[C@H]1CC=C(Cn3cccn3)C[C@H]21 [211,220-000, (+)-(3S,4S)-6,6-Dimethyl-(1,1-dimethylheptyl)-1-hydroxy-9-(pyrazolomethyl)-6a,7,10,10a-tetrahydro-6H-dibenzo[b,d]pyran] | relatively high affinity | no significant analgesic activity | 24 |  |  | effective in reducing the development of tolerance toward opioid | trend of reversal at all time points tested which became statistically significant on day 17 |
